# Laboratory results published in US7763287B2, “Extract of Cercis chinensis having anti-oxidant activity and anti-aging activity, and cosmetical composition containing the extract for anti-oxidation, skin-aging protection and wrinkle improvement” (Hankook Pharm. Co., Inc., priority 2002, dated 2010).
# Key:
# [1] = test system: HEK-N/F cells; test: Prolongation of life span of a cell; type: cell-based, human; conditions: 3 μg/ml during culture
# Protocol: HEK-N/F cells were obtained from foreskin of a newborn baby after its fibroblasts, another major component of skin, were treated with uridine bromide. Then, the cells were cultured in DMEM medium supplemented with 10 FBS. HEK-N/F cells were diluted consecutively at the ratio of 1:4 during the culture. Before being treated with samples, the cells were grown up to 3 PDL (population doubling level). During the culture, each sample was administered by […]. Medium was replaced every three days by fresh medium supplemented with a culture solution containing the equal concentration of the sample.
# [2] = test system: HEK-N/F cells; test: Telomere length / maximum PDL (Southern blot of TRFs); type: cell-based, human
# Protocol: In the above Example 8, an extract of […] chinensis and active ingredients separated from the same were confirmed to have an effect of prolongation of life span of a cell. Thus, in this example, relation between the effect of prolongation of life span and the length of a telomere was investigated. Particularly, genomic DNA was extracted from each cell of different ages by using a nucleic acid extraction kit (Isoquick Nucleic Acid Extraction kit, ORCA Research Inc.), which was stored at 4° C. after being dissolved in Tris-EDTA solution (10 mM Tris-HCl, 1 mM EDTA, pH 8.0). 2 μl of 10×H buffer solution (TaKaRa), 2 μl of the extracted genomic DNA solution and distilled water were all mixed in a 1.5 ml tube, making final volume 19 μl. Then, 1 μl at of restriction enzyme […]) was added thereto. […] Then, the gel was immersed in 0.25 N HCl, followed by shaking for 15 minutes. The gel was washed twice with distilled water. This gel was dipped into denaturing solution (0.2 N NaOH, 0.6 M NaCl), followed by shaking for 25 minutes at room temperature. And then, the gel was washed three times with distilled water. On a blotting device filled with 6×SSC, nitrocellulose membrane (Optitran BA-S 85, Schleicher & Schuel), 3 mm filter paper, paper towel, glass plate and weight (2 kg) were loaded in that order, followed by blotting overnight. After the blotting was finished, membrane filter was soaked in 3×SSC, and then water was discarded smoothly. The positions of the wells on the membrane were marked. The membrane was placed between filter papers, followed by baking at 80° C. for overnight. […] After being dried, the membrane was covered with wrap and set in a cassette on which X-ray film (Scientific Imaging Film, Kodak) and intensifying screen were attached. Autoradiography was performed at -80° C. for overnight. Based on the developed film and the location of the membrane, the positions of the wells were marked by a magic pen. The density peak of TRFs was detected by a laser densitometer (UltroScan XL, Pharmacia) and its mobility was calculated.
# [3] = test system: HEK-N/F cells; test: Protection of cells from oxidative damage induced by t-butylhydroperoxide; type: cell-based, human; conditions: 1.5 mM t-butylhydroperoxide 3 hours
# Protocol: t-butylhydroperoxide is metabolized into a free radical intermediate as it comes in a cell, so that it causes lipid peroxidation, resulting in cell damage. This phenomenon is similar to that caused by oxidataive stress accumulated in cells and tissues. […] HEK-N/F, an epidermal cell line of a newborn baby, was treated with 1.5 mM of t-butylhydroxyperoxide for 3 hours.
# [4] = test system: back skin of SKH-1 hairless mouse; test: Protection of skin tissues from UVB irradiation in hairless mice; type: in vivo
# Protocol: 5-6 week old female hairless mice (SKH-hr 1) were raised for 14 days at 24±2° C. with 50±10% relative humidity and 12 hour day/night cycle. 30-60 minutes before the experiment, a sample was hyperdermically injected on 5 spots of the mice and the backs of the mice were irradiated by UVB. 5 mice per each group were put in a cage (20×15×5 cm) and UVB irradiation was performed using a UV lamp (HP-15M, 280-400 nm, max. 312 nm; Atto Co., Japan) at 15 cm distance by 15 kJ/m^2. After the completion of UV irradiation for 24 hours, back skin was cut and stored at −70° C. until peroxidation was measured.
# UVB irradiation causes serious lipid peroxidation in skin tissues, so measurement of the peroxided lipid content might lead to the measurement of skin damages. Particularly, UVB was irradiated on the back skin of SKH-1 hairless mouse. 48 hours later, the back skin tissues were cut to measure lipid peroxidation by thiobarbituric acid (TBA) method. The back skin of the mouse was put in a 10×50 mM K-P buffer solution for homogenation.
# Hydrogen peroxidation was also investigated. The frozen back skin section was put in 0.1 M Tris-HCl buffer solution (pH 7.5) containing 1 mg/ml of glucose and 1 mg/ml diaminobenzidine (DAB), which was cultured at 37° C. for 5-6 hours. After being washed with distilled water, the solution was stained with 2% methyl green for 60 minutes. Nucleus stained blue and DAB peroxidase (brown) were observed under a microscope.
# [5] = test system: HEK-N/F cells; test: Cell protection from UV irradiation (DNA damage, ethidium homodimer fluorescence); type: cell-based, human; conditions: 35 mJ/cm^2 UVB, Et2 fluorescence (DNA damage)
# Protocol: UV irradiation induces DNA damage and DNA-protein connection by increasing active oxygen in cells. When HEK-N/F cells were irradiated by 35 mJ/cm^2 of UVB, DNA chains in nucleus were cut. After uniting the broken chains to ethidium homodimer (Et2), a DNA chain intercalating fluorescent dye, extent of fluorescence was measured to quantify the amount of DNA damage. Particularly, HEK-N/F cells were cultured on serum-free KGM medium (Clonetics), which were inoculated into wells of a 24-well plate by 0.5−4×10^4 cells/2 cm^2. Then, the cells were cultured for 18 hours, after which a sample was treated thereto for 2 hours. […] The cells exposed on UV were further cultured for 1-7 hours, and then, […] ethidium homodimer (Et2, Millipore) was added. 30 minutes later, fluorescence was measured with Millipore microplate fluorometer Cytofluor 2350 (excitation: 485 nm, emission: 645 nm).
compound,measurement,setting,value
"Oc1cc(O)cc(/C=C/c2ccc(O)c(O)c2)c1 [Chemical Formula 5, piceatannol]",average life span of a cell,[1],76 days
same,"life span, times as long as that of a control",[1],2.1 times
same,"telomere shortening speed delayed, comparing to control",[2],2.1 times
same,maximum PDL,[2]; control 14.1,29.9
same,Cell survival rate (%),[3],84.7±6.9%
same,TBARS (pmol/mg protein),[3]; compound 50.0 µg/ml,520.2 ± 60.7 pmol/mg protein
same,TBARS (nmol/mg protein),[4]; treating amount 10 mg/kg + UVB irradiation,0.16 ± 0.08 nmol/mg protein
same,TBARS (nmol/mg protein),[4]; treating amount 30 mg/kg + UVB irradiation,0.07 ± 0.03 nmol/mg protein
same,fluorescence lower than that of a control,[5],66.7%
